Values joined by “and” are separate entries in the source; they are usually repeats but may differ in a detail not shown here. Equal values may be shown once.
Tested on: NCI-H1341 complex spheroids, percent test/control
Assay: Anticancer human tumor NCI-H1341 cell line growth inhibition [AhR];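 also: spheroids exposed to agents for seven days before readout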
Settings: for viability, T/C: stronger effect = lower value; for IC50: curve of compound
From the text: Multicellular complex tumor spheroid response to aryl hydrocarbon receptor antagonists in combination with a variety of drugs and investigational agents in selected tumor cell lines
The current study was undertaken to assess response to aryl hydrocarbon receptor antagonists in combination with standard-of-care drugs and investigational agents in solid tumor complex spheroid models. Complex spheroids include a stromal component modeled by human endothelial cells (HUVEC) and fibroblasts modeled by human mesenchymal stem cells (MSCs). The concentration ranges selected for each drug and investigational agent were based upon clinically achievable concentrations if the clinical Cmax of the agent was known.
Compounds. The drugs and investigational agents: BAY 2416964 (NSC825713), GNF351 (NSC835774), CH-223191 (NSC835775), CPI-455 (NSC825282), aza-TdCyd (NSC777586), decitabine (NSC127716), belinostat (NSC758774), entinostat (NSC756642), pevonedistat (NSC761192), tazemetostat (NSC777109), talazoparib (NSC765396), olaparib (NSC753686), selinexor (NSC780203), nedisertib (M3814, NSC802822), bortezomib (NSC756655), venetoclax (NSC766270), doxorubicin (NSC123127), elimusertib (BAY189344, NSC800525), ceralasertib (AZD6738, NSC777638), TAK-243 (NSC785004), alisertib (NSC759677), etoposide (NSC141540), topotecan (NSC609699), eribulin (NSC707389), gemcitabine (NSC613327), carboplatin (NSC241240), cisplatin (NSC119875), and SN-38 (NSC673596) were obtained from the National Cancer Institute (NCI) Developmental Therapeutics Program Chemical Repository (32). The FDA-approved anticancer drug set is available from the Developmental Therapeutics Program at https://dtp.cancer.gov/organization/dscb/obtaining/available plates.htm. […] The stock solutions were prepared in dimethyl sulfoxide (DMSO, Sigma-Aldrich, St. Louis, MO, cat. D2650), except for the platinum compounds which were prepared in saline (Quality Biological, Gaithersburg, MD, cat. 114-055-101), at 800-fold the tested concentration and stored at -70 degrees C prior to their use. All drugs and investigational agents were tested over a range starting from a high concentration at or near the clinical Cmax and decreasing in half-log increments. If the clinical Cmax for an agent had not been determined, the highest concentration tested was 10 microM (Table 1).
Cell Culture. All cells were maintained in an incubator at 37 degrees C and 5% CO2 with 95% humidity. The PDC lines were cultured according to standard operating procedures established by the NCI PDMR (https://pdmr.cancer.gov). Briefly, all PDCs were thawed and cultured in Matrigel-coated flasks prepared with a working solution of 1X Ham's F-12 nutrient mix, without supplementation (Invitrogen, Waltham, MA, cat. 11765054), 100 U/mL penicillin-streptomycin (Invitrogen, cat. 15140122), and 2.5% Matrigel (Corning Inc., Corning, NY, cat. 354248) for the first three passages. All PDCs were cultured in complete DMEM/F-12 media containing advanced DMEM/F-12 (Invitrogen, cat. 12634028), 4.9% defined fetal bovine serum, heat inactivated (HyClone Laboratories Inc., Logan, UT, cat. SH30070.03HI), 389 ng/mL hydrocortisone (Sigma-Aldrich, cat. H4001), 9.7 ng/mL human EGF recombinant protein (Invitrogen, cat. PHG0313), 23.4 microg/mL adenine (Sigma-Aldrich, cat. A2786), 97.3 U/mL penicillin-streptomycin (Invitrogen, cat. 15140122), 1.9 mM L-glutamine (Invitrogen, cat. 25030081), and 9.7 microM Y-27632 dihydrochloride (Tocris Bioscience, Bristol, United Kingdom, cat. 1254). The PDCs were cultured in complete DMEM/F12 media without 10 microM Y-27632 dihydrochloride for at least two passages prior to the screen. The established cell lines NCI-H1341 and […] were cultured in DMEM/F-12, HEPES (Invitrogen, cat. 11330032), 5% defined fetal bovine serum (HyClone Laboratories Inc., cat. SH30070.03), ITS premix universal culture supplement [insulin (5 microg/mL), transferrin (5 microg/mL), and selenious acid (5 ng/mL)] […]

COc1ccc([C@@H](O)c2cc(-c3ncnc4cc(N5CCOCC5)ccc34)c(F)cc2Cl)nn1 was tested, and the viability, T/C (compound 0.0316 µM) was 97.1% and 88.2% and 96%, the viability, T/C (compound 0.1 µM) was 96.2% and 93.7% and 96.8% and the viability, T/C (compound 0.316 µM) was 91.2% and 79.9% and 87.8%. For the same compound, the viability, T/C (compound 1 µM) was 63.1% and 57% and 71.2%, the viability, T/C (compound 3.16 µM) was 31.1% and 22.9% and 32.9% and the viability, T/C (compound 10 µM) was 4.6% and 6.65% and 8.33%. For the same compound, the IC50 was 1650 nM and 1260 nM and 1880 nM.

In the case of COc1cccc2c1C(=O)c1c(O)c3c(c(O)c1C2=O)CC(O)(C(=O)CO)CC3OC1CC(N)C(O)C(C)O1 (stereo not drawn), the viability, T/C (compound 0.0316 µM) is reported as 49.4% and 58.5% and 51.1%, the viability, T/C (compound 0.1 µM) is reported as 48.7% and 55.5% and 55.7% and the viability, T/C (compound 0.316 µM) is reported as 35.4% and 44.5% and 30.1%. For the same compound, the viability, T/C (compound 1 µM) was 13.8% and 18.2% and 6.98%, the viability, T/C (compound 3.16 µM) was 0.92% and 1.68% and 0.74% and the viability, T/C (compound 10 µM) was 4.71% and 5.46% and 2.82%. For the same compound, the IC50 was < 31.6 nM and 186 nM and 114 nM.

Cc1ccccc1N=Nc1ccc(NC(=O)c2ccnn2C)c(C)c1 was tested, and the viability, T/C (compound 10 µM) was 56.2% [middle of 20 runs].

With Cn1ncnc1C1c2n[nH]c(=O)c3cc(F)cc(c23)NC1c1ccc(F)cc1 (stereo not drawn) the viability, T/C (compound 0.000316 µM) was 125% and 98% and 95.9%, the viability, T/C (compound 0.001 µM) was 88.8% and 101% and 99% and the viability, T/C (compound 0.00316 µM) was 97.2% and 99.4% and 99.8%. The viability, T/C (compound 0.01 µM) was 96.9% and 109% and 95.9%, the viability, T/C (compound 0.0316 µM) was 85.5% and 74% and 100% and the viability, T/C (compound 0.1 µM) was 89.4% and 76.9% and 71.7%. The IC50 was over 100 nM.

For NS(=O)(=O)OCC1CC(n2ccc3c(NC4CCc5ccccc54)ncnc32)CC1O (stereo not drawn), the viability, T/C (compound 0.0316 µM) was 52.1% and 44.4% and 32.1%, the viability, T/C (compound 0.1 µM) was 41.7% and 37.3% and 22.6% and the viability, T/C (compound 0.316 µM) was 27.1% and 18% and 11.2%. For the same compound, the viability, T/C (compound 1 µM) was 12.3% and 12.1% and 6.23%, the viability, T/C (compound 3.16 µM) was 11.9% and 7.68% and 3.37% and the viability, T/C (compound 10 µM) was 11.4% and 4.21% and 2.28%. For the same compound, the IC50 was 39.2 nM and < 31.6 nM.

Nc1ccccc1NC(=O)c1ccc(CNC(=O)OCc2cccnc2)cc1 was tested, and the viability, T/C (compound 0.0316 µM) was 86.1% and 87.6% and 78.7%, the viability, T/C (compound 0.1 µM) was 92.3% and 84.5% and 75% and the viability, T/C (compound 0.316 µM) was 59.9% and 74.8% and 27.3%. The viability, T/C (compound 1 µM) was 24.3% and 40.5% and 16.6%, the viability, T/C (compound 3.16 µM) was 5.76% and 6.13% and 5.26% and the viability, T/C (compound 10 µM) was 0.69% and 0.9% and 0.3%. For the same compound, the IC50 was 457 nM and 718 nM and 183 nM.

In the case of Nc1ccn(C2OC(CO)C(O)C2(F)F)c(=O)n1 (stereo not drawn), the viability, T/C (compound 0.0316 µM) is reported as 27.5% and 32.2% and 32.9%, the viability, T/C (compound 0.1 µM) is reported as 26.6% and 28.1% and 35.2% and the viability, T/C (compound 0.316 µM) is reported as 24.2% and 25.8% and 36.1%. The viability, T/C (compound 1 µM) was 24.8% and 27.9% and 31.6%, the viability, T/C (compound 3.16 µM) was 23.1% and 24.4% and 33.5% and the viability, T/C (compound 10 µM) was 21.6% and 21.2% and 32.3%. The IC50 was under 31.6 nM.

For Nc1ncn(C2CC(O)C(CO)O2)c(=O)n1 (stereo not drawn), the viability, T/C (compound 0.00316 µM) was 107% and 86.3% and 88.1%, the viability, T/C (compound 0.01 µM) was 95.4% and 112% and 100% and the viability, T/C (compound 0.0316 µM) was 102% and 89.2% and 69.8%. For the same compound, the viability, T/C (compound 0.1 µM) was 64.2% and 72.3% and 74.5%, the viability, T/C (compound 0.316 µM) was 50.6% and 52.8% and 43.7% and the viability, T/C (compound 1 µM) was 37% and 45.7% and 25.6%. The IC50 was 231 nM and 466 nM and 261 nM.

In the case of Nc1ncn(C2CC(O)C(CO)S2)c(=O)n1 (stereo not drawn), the viability, T/C (compound 0.000949 µM) is reported as 109% and 96.2% and 95%, the viability, T/C (compound 0.003 µM) is reported as 90.5% and 73.4% and 100% and the viability, T/C (compound 0.00949 µM) is reported as 115% and 102% and 104%. The viability, T/C (compound 0.03 µM) was 105% and 80.6% and 104%, the viability, T/C (compound 0.0949 µM) was 89.2% and 68.3% and 79% and the viability, T/C (compound 0.3 µM) was 68.2% and 49.5% and 62%. For the same compound, the IC50 was > 300 nM and 294 nM.

O=C(C=Cc1cccc(S(=O)(=O)Nc2ccccc2)c1)NO was tested, and the viability, T/C (compound 0.0316 µM) was 91.7% and 96.1% and 95.8%, the viability, T/C (compound 0.1 µM) was 87.7% and 85.4% and 80.2% and the viability, T/C (compound 0.316 µM) was 61.3% and 59% and 42.5%. For the same compound, the viability, T/C (compound 1 µM) was 17% and 24% and 28%, the viability, T/C (compound 3.16 µM) was 7.15% and 7.86% and 8.15% and the viability, T/C (compound 10 µM) was 1.07% and 0.78% and 0.36%. The IC50 was 425 nM and 423 nM and 295 nM.

For O=C(C=Cn1cnc(-c2cc(C(F)(F)F)cc(C(F)(F)F)c2)n1)NNc1cnccn1, the viability, T/C (compound 0.00949 µM) was 92.3% and 73.3% and 75.8%, the viability, T/C (compound 0.03 µM) was 77.8% and 68.4% and 79.9% and the viability, T/C (compound 0.0949 µM) was 61.5% and 30% and 30.5%. For the same compound, the viability, T/C (compound 0.3 µM) was 12.5% and 17.1% and 6.76%, the viability, T/C (compound 0.949 µM) was 8.28% and 8.73% and 4.72% and the viability, T/C (compound 3 µM) was 6.13% and 7.12% and 2.87%. For the same compound, the IC50 was 122 nM and 51.9 nM and 59 nM.

With O=C(c1cc(Cc2n[nH]c(=O)c3ccccc23)ccc1F)N1CCN(C(=O)C2CC2)CC1 the viability, T/C (compound 0.0316 µM) was 97.7% and 93.7% and 111%, the viability, T/C (compound 0.1 µM) was 100% and 83.7% and 108% and the viability, T/C (compound 0.316 µM) was 105% and 87.7% and 90.6%. For the same compound, the viability, T/C (compound 1 µM) was 95.6% and 88% and 110%, the viability, T/C (compound 3.16 µM) was 102% and 86.6% and 83.1% and the viability, T/C (compound 10 µM) was 76.6% and 70.3% and 83.6%. It also gave an IC50 of over 10000 nM.

Reference: PubChem BioAssay AID1919014 (Molecular Pharmacology Branch, DTP, NCI, 2023)
